Test system: S. carnosus TM300
Test: RNAseq differential gene expression
Format: cell-based, Staphylococcus carnosus
Procedure: For the RNAseq experiments, epilancin was added at sub-lethal concentration (0.5x MIC) to S. carnosus TM300 once the cultures reached an OD600 of 0.6. RNA was extracted 40 min after the treatment, using a FastRNA Pro Blue kit (MP Biomedicals). Both treated and parallel untreated samples were collected at the same time. Sequencing was performed at the Carver Biotechnology Center (UIUC). For RNAseq analysis, gene counts were read in to R (v3.1.1; [Team, 2014]), and 14/2441 genes were removed because they had fewer than 32 total counts across the six samples. edgeR’s (v3.6.7) TMM normalization ([Robinson and Oshlack, 2010]) plus negative binomial generalized log-linear model ([McCarthy et al., 2012]) was used to test for differential expression between treated and untreated groups, while accounting for pairing of U and T replicates from three different cultures. p-values were adjusted using the false discovery rate method ([Benjamini and Hochberg, 1995]).

Epilancin 15X
fold_change Sca_1501 (hypothetical protein): 2.75 | fold_change Sca_1502 (hypothetical protein): 4.86 | fold_change Sca_1504 (hypothetical protein): 11.43 | fold_change Sca_1505 (hypothetical protein): 11.29 | fold_change Sca_1506 (hypothetical protein): 11.77 | fold_change Sca_1507 (hypothetical protein): 12.4 | fold_change Sca_1508 (hypothetical protein): 10.53 | fold_change Sca_1509 (hypothetical protein): 0.5 | fold_change Sca_1523 (hypothetical protein): 2.05 | fold_change Sca_1526 (hypothetical protein): 2.58 | fold_change Sca_1532 (hypothetical protein): 3.3 | fold_change Sca_1533 (hypothetical protein): 3.51 | fold_change Sca_1534 (hypothetical protein): 2.71 | fold_change Sca_1535 (hypothetical protein): 2.45 | fold_change Sca_1536 (hypothetical protein): 2.13 | fold_change Sca_1587 (hypothetical protein): 2.19 | fold_change Sca_1588 (hypothetical protein): 2.2 | fold_change Sca_1643 (hypothetical protein): 2.32 | fold_change Sca_1645 (hypothetical protein): 2.04 | fold_change Sca_1650 (hypothetical protein): 2.26 | fold_change Sca_1667 (hypothetical protein): 3.97 | fold_change Sca_1668 (hypothetical protein): 3.55 | fold_change Sca_1674 (hypothetical protein): 2.34 | fold_change Sca_1675 (hypothetical protein): 3.21 | fold_change Sca_1681 (hypothetical protein): 2.25 | fold_change Sca_1686 (hypothetical protein): 4.82 | fold_change Sca_1687 (hypothetical protein): 4.15 | fold_change Sca_1689 (hypothetical protein): 2.35 | fold_change Sca_1737 (hypothetical protein): 2.07 | fold_change Sca_1738 (hypothetical protein): 2.11 | fold_change Sca_1755 (hypothetical protein): 3.06 | fold_change Sca_1788 (hypothetical protein): 3.57 | fold_change Sca_1804 (hypothetical protein): 5.16 | fold_change Sca_1805 (hypothetical protein): 2.14 | fold_change Sca_1807 (hypothetical protein): 2.04 | fold_change Sca_1815 (hypothetical protein): 0.5 | fold_change Sca_1838 (hypothetical protein): 2.29 | fold_change Sca_1862 (hypothetical protein): 0.49 | fold_change Sca_1869 (hypothetical protein): 2.26 | fold_change Sca_1903 (hypothetical protein): 4.81 | fold_change Sca_1904 (hypothetical protein): 2.54 | fold_change Sca_1905 (hypothetical protein): 2.54 | fold_change Sca_1906 (hypothetical protein): 2.34 | fold_change Sca_1917 (hypothetical protein): 2.88 | fold_change Sca_1954 (hypothetical protein): 2.15 | fold_change Sca_1959 (hypothetical protein): 7.97 | fold_change Sca_1992 (hypothetical protein): 2.15 | fold_change Sca_2001 (hypothetical protein): 2.07 | fold_change Sca_2004 (hypothetical protein): 2.83 | fold_change Sca_2009 (hypothetical protein): 4.15 | fold_change Sca_2014 (hypothetical protein): 2.23 | fold_change Sca_2018 (hypothetical protein): 2.95 | fold_change Sca_2020 (hypothetical protein): 2.38 | fold_change Sca_2021 (hypothetical protein): 2.73 | fold_change Sca_2022 (hypothetical protein): 2.89 | fold_change Sca_2023 (hypothetical protein): 3.49 | fold_change Sca_2024 (hypothetical protein): 8.09 | fold_change Sca_2051 (hypothetical protein): 2.03 | fold_change Sca_2066 (hypothetical protein): 2.09 | fold_change Sca_2098 (hypothetical protein): 2.16 | fold_change Sca_2099 (hypothetical protein): 2 | fold_change Sca_2122 (hypothetical protein): 2.08 | fold_change Sca_2131 (hypothetical protein): 4.04 | fold_change Sca_2132 (hypothetical protein): 2.49 | fold_change Sca_2133 (hypothetical protein): 2.15 | fold_change Sca_2136 (hypothetical protein): 3 | fold_change Sca_2141 (hypothetical protein): 2.34 | fold_change Sca_2182 (hypothetical protein): 0.5 | fold_change Sca_2186 (hypothetical protein): 2.4 | fold_change Sca_2187 (hypothetical protein): 2.82 | fold_change Sca_2188 (hypothetical protein): 5.77 | fold_change Sca_2193 (hypothetical protein): 5.14 | fold_change Sca_2202 (hypothetical protein): 2.52 | fold_change Sca_2207 (hypothetical protein): 2.06 | fold_change Sca_2209 (hypothetical protein): 2.42 | fold_change Sca_2213 (hypothetical protein): 2.61 | fold_change Sca_2215 (hypothetical protein): 3.52 | fold_change Sca_2221 (hypothetical protein): 2.48 | fold_change Sca_2222 (hypothetical protein): 2.24 | fold_change Sca_2226 (hypothetical protein): 3.16 | fold_change Sca_2228 (hypothetical protein): 3.64 | fold_change Sca_2229 (hypothetical protein): 3.47 | fold_change Sca_2230 (hypothetical protein): 2.6 | fold_change Sca_2231 (hypothetical protein): 2.37 | fold_change Sca_2235 (hypothetical protein): 2.04 | fold_change Sca_2236 (hypothetical protein): 2.08 | fold_change Sca_2253 (hypothetical protein): 0.5 | fold_change Sca_2268 (hypothetical protein): 3.5 | fold_change Sca_2269 (hypothetical protein): 3.56 | fold_change Sca_2273 (hypothetical protein): 11.9 | fold_change Sca_2275 (hypothetical protein): 3.1 | fold_change Sca_2284 (hypothetical protein): 0.49 | fold_change Sca_2295 (hypothetical protein): 4.48 | fold_change Sca_2296 (hypothetical protein): 2.39 | fold_change Sca_2297 (hypothetical protein): 2.21 | fold_change Sca_2299 (hypothetical protein): 5.46 | fold_change Sca_2301 (hypothetical protein): 2.01 | fold_change Sca_2334 (hypothetical protein): 5.35 | fold_change Sca_2337 (hypothetical protein): 2.1 | fold_change Sca_2358 (hypothetical protein): 2.95 | fold_change Sca_2370 (hypothetical protein): 2.53 | fold_change Sca_2373 (hypothetical protein): 3.45 | fold_change Sca_2379 (hypothetical protein): 3.04 | fold_change Sca_2384 (hypothetical protein): 2.31 | fold_change Sca_2385 (hypothetical protein): 3.04 | fold_change Sca_2386 (hypothetical protein): 2.57 | fold_change Sca_2398 (hypothetical protein): 19.58 | fold_change Sca_2399 (hypothetical protein): 20.62 | fold_change Sca_2424 (hypothetical protein): 2.19 | fold_change Sca_2425 (hypothetical protein): 2.2 | fold_change Sca_2426 (hypothetical protein): 3.85 | fold_change Sca_2435 (hypothetical protein): 6.09 | fold_change Sca_2436 (hypothetical protein): 5.9 | fold_change Sca_2437 (hypothetical protein): 4.25 | fold_change Sca_2457 (hypothetical protein): 3.07 | fold_change orf1 (hypothetical protein): 2.79 | fold_change ydfG (hypothetical protein): 5.22 | fold_change Sca_1639 (hypothetical protein, gene fmhA'): 2.76 | fold_change Sca_1638 (hypothetical protein, gene fmhA''): 3.24 | fold_change Sca_1124 (iron uptake regulatory protein, gene fur): 2.1 | fold_change geh (lipase (fragment 1), gene geh'): 2.82 | fold_change geh' (lipase (fragment 2), gene geh''): 2.62 | fold_change Sca_0327 (lysine decarboxlyase family protein): 5.96 | fold_change dnaK (molecular chaperone DnaK): 2.67 | fold_change moeA (molybdopterin biosynthesis protein MoeA): 2.6

Source: PMC10652874, “Investigation into the mechanism of action of the antimicrobial peptide epilancin 15X” (Frontiers in Microbiology, 2023)
